Reference: the supplement of paper PMC10627819

Assays:
B. subtilis 168 [1] = test: Bliss interaction score (quartile over a dose matrix) (fitness difference); higher = more antagonism (negative = synergy)
How it was run: (§1)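 Quartiles of the Bliss score were taken over technical, biological and donor/recipient replicates. That score is observed fitness minus the product of the single-drug fitness values, which were inferred from combination data. Fitness itself is OD595 at entry into stationary phase divided by the plate's robust no-drug mean, with a cap at 1.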

S. aureus Newman [2] = test: as above
How it was run: as §1

S. pneumoniae D39V [3] = test: as above
How it was run: as §1

S. aureus DSM 20231 = test: as above
How it was run: as §1

B. subtilis 168 [4] = test: fitness (endpoint OD595 vs no drug) (fraction); higher = more growth
How it was run: (§2)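 Fitness compares growth at the stationary-phase transition with the robust mean of no-drug control wells, as a ratio of optical densities. The ratio is capped at 1. Wells of 384-well plates held 30 µl, or 55 µl for S. pneumoniae, inoculated at OD595 0.01. Readings at OD595 every 30 min for 14 h at 37 °C were corrected against the first reading.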

S. aureus Newman [5] = test: as above
How it was run: as §2

S. pneumoniae D39V [6] = test: as above
How it was run: as §2
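For Bliss interaction score (quartile over a dose matrix) in this document: first quartile when negative (synergy) and third quartile when positive (antagonism).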

CC1=C(C(=O)O)N2C(=O)[C@@H](NC(=O)[C@H](N)c3ccccc3)[C@H]2SC1 [Cephalexin] + CCN(CC)CCOC(=O)c1ccc(N)cc1 [Procaine]
Details | Bliss interaction score
B. subtilis 168 [1] | 0.0569
S. aureus DSM 20231 | 0.0552
S. aureus Newman [2] | -0.0605
S. pneumoniae D39V [3] | -0.118

fitness
Details | first compound 0.125 µg/mL | first compound 0.25 µg/mL | first compound 0.5 µg/mL | first compound 1 µg/mL
B. subtilis 168 [4], partner 85.5 µg/mL | 0.925 | 0.911 | 0.904 | –
B. subtilis 168 [4], partner 171 µg/mL | 0.91 | 0.912 | 0.864 | –
B. subtilis 168 [4], partner 342 µg/mL | 0.879 | 0.875 | 0.869 | –
S. aureus Newman [5], partner 85.5 µg/mL | – | 0.952 | – | –
S. aureus Newman [5], partner 342 µg/mL | – | 0.966 | 0.987 | ≥ 1

fitness, S. pneumoniae D39V [6], one replicate
Details | first compound 0.125 µg/mL | first compound 0.25 µg/mL | first compound 0.5 µg/mL | first compound 1 µg/mL | first compound 2 µg/mL | first compound 4 µg/mL
partner 85.5 µg/mL | ≥ 1 | ≥ 1 | ≥ 1 | 0.253 | 0.0329 | 0.0487
partner 171 µg/mL | 0.958 | 0.982 | ≥ 1 | 0.422 | 0.058 | 0.0569
partner 342 µg/mL | 0.962 | 0.997 | ≥ 1 | 0.395 | 0.0539 | 0.0475

CC1=C(C(=O)O)N2C(=O)[C@@H](NC(=O)[C@H](N)c3ccccc3)[C@H]2SC1 [Cephalexin] + CN1C2=CC=CC=C2N=C3C1=CC=CC3=O [Pyocyanin]
Details | Bliss interaction score
B. subtilis 168 [1] | -0.0454
S. aureus DSM 20231 | 0.0604
S. aureus Newman [2] | 0.0862
S. pneumoniae D39V [3] | 0.0919

fitness
Details | first compound 0.125 µg/mL | first compound 0.25 µg/mL | first compound 0.5 µg/mL | first compound 1 µg/mL
B. subtilis 168 [4], partner 1.25 µg/mL | 0.923 | 0.916 | 0.881 | –
B. subtilis 168 [4], partner 2.5 µg/mL | 0.874 | 0.836 | 0.823 | –
B. subtilis 168 [4], partner 5 µg/mL | 0.719 | 0.686 | 0.679 | –
S. aureus Newman [5], partner 1.25 µg/mL | – | 0.928 | 0.92 | 0.823
S. aureus Newman [5], partner 2.5 µg/mL | – | 0.905 | 0.892 | –
S. aureus Newman [5], partner 5 µg/mL | – | 0.604 | 0.559 | –

fitness, S. pneumoniae D39V [6], one replicate
Details | first compound 0.125 µg/mL | first compound 0.25 µg/mL | first compound 0.5 µg/mL | first compound 1 µg/mL | first compound 2 µg/mL | first compound 4 µg/mL
partner 0.325 µg/mL | 0.976 | ≥ 1 | ≥ 1 | 0.817 | 0.328 | 0.0365
partner 0.65 µg/mL | 0.933 | ≥ 1 | ≥ 1 | 0.891 | 0.65 | 0.158
partner 1.3 µg/mL | 0.762 | 0.805 | 0.822 | – | – | –

CC1=C(C(=O)O)N2C(=O)[C@@H](NC(=O)[C@H](N)c3ccccc3)[C@H]2SC1 [Cephalexin] + CN(C)c1cc(NC(=O)CNC(C)(C)C)c(O)c2c1C[C@H]1C[C@H]3[C@H](N(C)C)C(O)=C(C(N)=O)C(=O)[C@@]3(O)C(O)=C1C2=O [Tigecycline]
Details | Bliss interaction score
B. subtilis 168 [1] | -0.0606
S. aureus DSM 20231 | 0.0805
S. aureus Newman [2] | 0.0193
S. pneumoniae D39V [3] | -0.0787

fitness
Details | first compound 0.125 µg/mL | first compound 0.25 µg/mL | first compound 0.5 µg/mL | first compound 1 µg/mL | first compound 2 µg/mL | first compound 4 µg/mL
B. subtilis 168 [4], partner 0.039 µg/mL | 0.958 | 0.946 | 0.942 | – | – | –
B. subtilis 168 [4], partner 0.078 µg/mL | 0.903 | 0.902 | 0.942 | – | – | –
B. subtilis 168 [4], partner 0.156 µg/mL | 0.951 | 0.892 | 0.943 | – | – | –
S. aureus Newman [5], partner 0.039 µg/mL | – | 0.974 | 0.992 | ≥ 1 | – | –
S. aureus Newman [5], partner 0.078 µg/mL | – | 0.998 | ≥ 1 | ≥ 1 | – | –
S. aureus Newman [5], partner 0.156 µg/mL | – | 0.97 | 0.994 | ≥ 1 | – | –
S. pneumoniae D39V [6], partner 0.65 µg/mL | – | – | – | 0.514 | 0.0102 | 0.0229
S. pneumoniae D39V [6], partner 1.3 µg/mL | – | – | – | 0.616 | 0.0542 | 0.0691
S. pneumoniae D39V [6], partner 2.6 µg/mL | – | – | – | 0.616 | 0.0292 | 0.0457

fitness, one replicate
Details | first compound 0.125 µg/mL | first compound 0.25 µg/mL | first compound 0.5 µg/mL | first compound 1 µg/mL
B. subtilis 168 [4], partner 0.125 µg/mL | – | 0.94 | ≥ 1 | 0.995
B. subtilis 168 [4], partner 0.25 µg/mL | – | 0.952 | 0.976 | 0.975
B. subtilis 168 [4], partner 0.5 µg/mL | – | 0.958 | ≥ 1 | 0.916
S. pneumoniae D39V [6], partner 0.65 µg/mL | 0.933 | 0.959 | ≥ 1 | –
S. pneumoniae D39V [6], partner 1.3 µg/mL | 0.964 | 0.974 | ≥ 1 | –
S. pneumoniae D39V [6], partner 2.6 µg/mL | 0.888 | 0.915 | 0.978 | –

CC1=C(C(=O)O)N2C(=O)[C@@H](NC(=O)[C@H](N)c3ccccc3)[C@H]2SC1 [Cephalexin] + CN(N=O)C(=O)N[C@@H](C=O)[C@@H](O)[C@H](O)[C@H](O)CO [Streptozotocin]
Details | Bliss interaction score
B. subtilis 168 [1] | 0.094
S. aureus DSM 20231 | -0.0755
S. aureus Newman [2] | 0.0503
S. pneumoniae D39V [3] | -0.0789

fitness, one replicate
Details | first compound 0.125 µg/mL | first compound 0.25 µg/mL | first compound 0.5 µg/mL | first compound 1 µg/mL | first compound 2 µg/mL | first compound 4 µg/mL
B. subtilis 168 [4], partner 0.15 µg/mL | 0.918 | 0.932 | ≥ 1 | – | – | –
B. subtilis 168 [4], partner 0.3 µg/mL | ≥ 1 | ≥ 1 | ≥ 1 | – | – | –
B. subtilis 168 [4], partner 0.6 µg/mL | 0.952 | 0.956 | 0.967 | – | – | –
S. pneumoniae D39V [6], partner 1.2 µg/mL | 0.878 | 0.928 | 0.953 | 0.218 | 0.0084 | 0.0421
S. pneumoniae D39V [6], partner 2.4 µg/mL | 0.922 | 0.965 | 0.968 | 0.313 | 0.0518 | 0.0145
S. pneumoniae D39V [6], partner 4.8 µg/mL | 0.909 | 0.901 | 0.922 | 0.0033 | 0 | 0

fitness, S. aureus Newman [5]
Details | first compound 0.25 µg/mL | first compound 0.5 µg/mL | first compound 1 µg/mL
partner 0.15 µg/mL | 0.874 | 0.863 | 0.876
partner 0.3 µg/mL | 0.728 | 0.735 | 0.786
partner 0.6 µg/mL | 0.6 | 0.591 | 0.696
